According to article PMC8286840, “Identifying SARS-CoV-2 antiviral compounds by screening for small molecule inhibitors of Nsp3 papain-like protease” (Biochemical Journal, 2021):
Counter-ions that a name gives are not always drawn. Like-named read-outs stand apart in the source and are kept apart here. Where a SMILES comes first, the peptide text is derived from it.

Tests used:
[1] = molecular target: T1, SARS-CoV-2 PLpro (nsp3 1564–1878) (Severe acute respiratory syndrome coronavirus 2, UniProt P0DTD1); assay: biochemical; parameters: FRET-quenched peptide (Pro3) cleavage by PLpro, 10 min pre-incubation, slope over 20 min, normalised to no-compound control; settings: low concentration screen, read-out: % of control remaining
[2] = molecular target: T1, SARS-CoV-2 PLpro (nsp3 1564–1878); assay: biochemical; parameters: FRET-quenched peptide (Pro3) cleavage by PLpro, 10 min pre-incubation, slope over 20 min, normalised to no-compound control; settings: high concentration screen, read-out: % of control remaining

Structure (SMILES): O=c1cc(-c2ccc(O)cc2)oc2cc(O)cc(O)c12 [Apigenin]
- remaining activity at 1.25 µM ([1]; Well no.=299): 93.8%
- remaining activity at 1.25 µM ([1]; Well no.=3234): 99.1%
- remaining activity at 1.25 µM ([1]; Well no.=3909): 101%
- remaining activity at 3.75 µM ([2]; Well no.=299): 93.2%
- remaining activity at 3.75 µM ([2]; Well no.=3234): 94.9%
- remaining activity at 3.75 µM ([2]; Well no.=3909): 96.7%

Structure (SMILES): COc1ccc(-n2nc(C(N)=O)c3c2C(=O)N(c2ccc(N4CCCCC4=O)cc2)CC3)cc1 [Apixaban]
- remaining activity at 1.25 µM ([1]; Well no.=5331): 99.7%
- remaining activity at 3.75 µM ([2]; Well no.=5331): 100%

Structure (SMILES): CN1CCc2cccc3c2[C@H]1Cc1ccc(O)c(O)c1-3 [Apomorphine hydrochloride hemihydrate]
- remaining activity at 1.25 µM ([1]; Well no.=349): 99.6%
- remaining activity at 3.75 µM ([2]; Well no.=349): 103%

Structure (SMILES): O=C1C(=O)N(Cc2ccc(Cl)c(Cl)c2)c2ccccc21 [Apoptosis Activator 2]
- remaining activity at 1.25 µM ([1]; Well no.=5259): 98.8%
- remaining activity at 3.75 µM ([2]; Well no.=5259): 95.7%

Structure (SMILES): COc1ccc(-c2nc(-c3cc(C(F)(F)F)cc(C(F)(F)F)c3)n(Cc3ccc(C(N)=O)cc3)c2-c2ccc(OC)cc2)cc1 [Apoptozole]
- remaining activity at 1.25 µM ([1]; Well no.=6596): 102%
- remaining activity at 1.25 µM ([1]; Well no.=8536): 98.3%
- remaining activity at 3.75 µM ([2]; Well no.=6596): 92.9%
- remaining activity at 3.75 µM ([2]; Well no.=8536): 90.1%

Structure (SMILES): CN[C@@H]1[C@@H](O[C@H]2O[C@H](CO)[C@@H](N)[C@H](O)[C@H]2O)O[C@H]2C[C@@H](N)[C@@H](O[C@H]3[C@H](O)[C@@H](O)[C@H](N)C[C@@H]3N)O[C@@H]2[C@@H]1O [Apramycin]
- remaining activity at 1.25 µM ([1]; Well no.=2127): 99.8%
- remaining activity at 3.75 µM ([2]; Well no.=2127): 102%

Structure (SMILES): CCOc1cc([C@@H](CS(C)(=O)=O)N2C(=O)c3cccc(NC(C)=O)c3C2=O)ccc1OC [Apremilast (CC-10004)]
- remaining activity at 1.25 µM ([1]; Well no.=5218): 97.8%
- remaining activity at 3.75 µM ([2]; Well no.=5218): 99.8%

Structure (SMILES): C[C@@H](O[C@H]1OCCN(Cc2n[nH]c(=O)[nH]2)[C@H]1c1ccc(F)cc1)c1cc(C(F)(F)F)cc(C(F)(F)F)c1 [Aprepitant]
- remaining activity at 1.25 µM ([1]; Well no.=2244): 98.3%
- remaining activity at 1.25 µM ([1]; Well no.=6703): 102%
- remaining activity at 3.75 µM ([2]; Well no.=2244): 99.9%
- remaining activity at 3.75 µM ([2]; Well no.=6703): 97.7%

Structure (SMILES): CCCCC/C=C\C/C=C\C/C=C\C/C=C\CCCC(N)=O [Arachidonamide]
- remaining activity at 1.25 µM ([1]; Well no.=4336): 108%
- remaining activity at 3.75 µM ([2]; Well no.=4336): 104%

Structure (SMILES): CCCCC/C=C\C/C=C\C/C=C\C/C=C\CCCC(=O)O [Arachidonic acid]
- remaining activity at 1.25 µM ([1]; Well no.=4301): 104%
- remaining activity at 1.25 µM ([1]; Well no.=4446): 95.8%
- remaining activity at 3.75 µM ([2]; Well no.=4301): 101%
- remaining activity at 3.75 µM ([2]; Well no.=4446): 97.5%

Structure (SMILES): CCOC(=O)c1c(CSc2ccccc2)n(C)c2cc(Br)c(O)c(CN(C)C)c12 [Arbidol HCl]
- remaining activity at 1.25 µM ([1]; Well no.=5098): 104%
- remaining activity at 3.75 µM ([2]; Well no.=5098): 107%

Structure (SMILES): OC[C@H]1O[C@@H](Oc2ccc(O)cc2)[C@H](O)[C@@H](O)[C@@H]1O [Arbutin]
- remaining activity at 1.25 µM ([1]; Well no.=3478): 103%
- remaining activity at 3.75 µM ([2]; Well no.=3478): 101%

Structure (SMILES): NC(N)=NCCCCN=C(N)N [Arcaine sulfate]
- remaining activity at 1.25 µM ([1]; Well no.=293): 99.2%
- remaining activity at 3.75 µM ([2]; Well no.=293): 96.8%

Structure (SMILES): COc1cc(C[C@H]2C(=O)OC[C@@H]2Cc2ccc(OC)c(OC)c2)ccc1O [Arctigenin - (3R,4R)-4-[(3,4-Dimethoxyphenyl)methyl]dihydro-3-[(4-hydroxy-3-methoxyphenyl)methyl]-2(3H)-furanone]
- remaining activity at 1.25 µM ([1]; Well no.=2446): 105%
- remaining activity at 3.75 µM ([2]; Well no.=2446): 105%

Structure (SMILES): O=C1NC(=O)c2c1c1c3ccccc3[nH]c1c1[nH]c3ccccc3c21 [Arcyriaflavin A - 12,13-Dihydro-5H-indolo[2,3-a]pyrrolo[3,4-c]carbazole-5,7(6H)-dione]
- remaining activity at 1.25 µM ([1]; Well no.=2532): 102%
- remaining activity at 3.75 µM ([2]; Well no.=2532): 100%

Structure (SMILES): O=C1NC(=O)c2c1c1c3ccccc3[nH]c1c1[nH]c3ccccc3c21 [Arcyriaflavin A, Synthetic]
- remaining activity at 1.25 µM ([1]; Well no.=2333): 105%
- remaining activity at 3.75 µM ([2]; Well no.=2333): 102%

Structure (SMILES): C#CCOC(=O)C1=CCCN(C)C1 [Arecaidine propargyl ester hydrobromide]
- remaining activity at 1.25 µM ([1]; Well no.=254): 97.1%
- remaining activity at 3.75 µM ([2]; Well no.=254): 98.4%

Structure (SMILES): NC(N)=NCCC[C@H](N)C(=O)NCC(=O)N[C@@H](CC(=O)O)C(=O)N[C@@H](CS)C(=O)O [Arg-Gly-Asp-Cys] (H-RGDC-OH)
- remaining activity at 1.25 µM ([1]; Well no.=8126): 99.2%
- remaining activity at 3.75 µM ([2]; Well no.=8126): 97.3%

Structure (SMILES): NC(N)=NCCC[C@H](N)C(=O)NCC(=O)N[C@@H](CC(=O)O)C(=O)N[C@@H](CO)C(=O)O [Arg-Gly-Asp-Ser]
- remaining activity at 1.25 µM ([1]; Well no.=7938): 95.5%
- remaining activity at 3.75 µM ([2]; Well no.=7938): 95.3%

Structure (SMILES): NC(N)=NCCC[C@H](N)C(=O)NCC(=O)N[C@@H](CCC(=O)O)C(=O)N[C@@H](CO)C(=O)O [Arg-Gly-Glu-Ser(TFA)] (H-RGES-OH)
- remaining activity at 1.25 µM ([1]; Well no.=7924): 96.4%
- remaining activity at 3.75 µM ([2]; Well no.=7924): 97.3%

Structure (SMILES): CC1CNc2c(cccc2S(=O)(=O)N[C@@H](CCCNC(=N)N)C(=O)N2CC[C@@H](C)C[C@@H]2C(=O)O)C1 (stereo partly shown) [Argatroban (monohydrate)]
- remaining activity at 1.25 µM ([1]; Well no.=8454): 103%
- remaining activity at 3.75 µM ([2]; Well no.=8454): 101%

Structure (SMILES): CC1CNc2c(cccc2S(=O)(=O)N[C@@H](CCCNC(=N)N)C(=O)N2CC[C@@H](C)C[C@@H]2C(=O)O)C1 (stereo partly shown) [Argatroban]
- remaining activity at 1.25 µM ([1]; Well no.=2196): 97.1%
- remaining activity at 3.75 µM ([2]; Well no.=2196): 97.9%

Structure (SMILES): N[C@](CCCCB(O)O)(CCN1CCCCC1)C(=O)O [Arginase inhibitor 1]
- remaining activity at 1.25 µM ([1]; Well no.=8697): 106%
- remaining activity at 3.75 µM ([2]; Well no.=8697): 105%

Structure (SMILES): O=C1CCc2ccc(OCCCCN3CCN(c4cccc(Cl)c4Cl)CC3)cc2N1 [Aripiprazole]
- remaining activity at 1.25 µM ([1]; Well no.=1844): 93.9%
- remaining activity at 1.25 µM ([1]; Well no.=8237): 102%
- remaining activity at 3.75 µM ([2]; Well no.=1844): 95.9%
- remaining activity at 3.75 µM ([2]; Well no.=8237): 95.5%

Structure (SMILES): COc1cccc2c1cc([N+](=O)[O-])c1c(C(=O)O)cc3c(c12)OCO3 [Aristolochic acid A]
- remaining activity at 1.25 µM ([1]; Well no.=3081): 106%
- remaining activity at 3.75 µM ([2]; Well no.=3081): 103%

Structure (SMILES): CO[C@H]1O[C@@H]2O[C@@]3(C)CC[C@H]4[C@H](C)CC[C@@H]([C@H]1C)[C@@]24OO3 [Artemether (SM-224)]
- remaining activity at 1.25 µM ([1]; Well no.=5188): 94.9%
- remaining activity at 3.75 µM ([2]; Well no.=5188): 97.4%

Structure (SMILES): C[C@H]1[C@H](OC(=O)CCC(=O)O)O[C@@H]2O[C@@]3(C)CC[C@H]4[C@H](C)CC[C@@H]1[C@@]24OO3 [Artesunate]
- remaining activity at 1.25 µM ([1]; Well no.=2200): 100%
- remaining activity at 1.25 µM ([1]; Well no.=3083): 96%
- remaining activity at 3.75 µM ([2]; Well no.=2200): 98.2%
- remaining activity at 3.75 µM ([2]; Well no.=3083): 102%

Structure (SMILES): CCCNC(C)C(=O)Nc1c(C)csc1C(=O)OC (stereo not shown) [Articaine HCl]
- remaining activity at 1.25 µM ([1]; Well no.=5367): 95.8%
- remaining activity at 3.75 µM ([2]; Well no.=5367): 94.3%
